Data as given in a melting point compilation (Tetko et al.; mined from patent text by program, amines drawn as free bases though some values may be those of a salt).

melting point	Compound
103 to 105 °C	CC(C)Cc1c[nH]c(-c2ccnc(NC(=O)c3ccccc3)c2)n1
78 to 79 °C	Nc1ncc(Br)nc1OCC1CCCC1
113 to 114 °C	CC(C)(C)[Si](C)(C)N1C(=O)CC1SC(c1ccccc1)(c1ccccc1)c1ccccc1 (centres undefined)
121 °C	CCCCOc1ccc(S(=O)(=O)C2(C(=O)NO)CCN(CCCC)CC2)cc1
93 to 94 °C	COC(=O)C1=CCC2C(CCC3C(C)(C)CCCC23C)C(=O)C1 (centres undefined)
283 to 286 °C	CCCc1cc2nn(Cc3ccc(NC(=O)c4ccccc4S(=O)(=O)O)cc3)c(=O)n2c(C)n1
160 to 161 °C	CC(=O)Oc1cc(OC(C)=O)c2c(c1)Oc1ccccc1C2C#N (centres undefined)
140 to 143 °C	CCOC(=O)COc1cc(S(C)(=O)=O)ccc1C(=O)NCc1ccc(Br)cc1F
154 to 156 °C	Cc1cc(Oc2ccc(Cl)c(Cl)c2)ccc1S(C)(=O)=O
109 to 112 °C	O=C(O)Cc1noc(Cc2ccccc2)n1
173 to 175 °C	Cc1cnc2ccc(-c3cccnc3)nn12
216 to 218 °C	Cc1ccc(-c2nc3sc4ccccc4n3c2CC(=O)N(C)C)s1
153 to 154 °C	N#Cn1c(SCC(=O)N2CCCc3ccccc32)nc2ccccc21
257 to 260 °C	CCc1[nH]n(-c2c(Cl)cc(Cl)cc2Cl)c2nc(Cc3cccnc3)nc(=O)c1-2
41 to 42 °C	COc1cccc2c1nc(C1CC1)n2CC=C(C)C
118 to 119 °C	Cc1c(F)c(F)c(C)c(C(=O)O)c1F
132 to 134 °C	COC(=O)c1nc(-c2ccc(Cl)cc2)nc(NCc2ccco2)c1Cl
207 to 209 °C	COc1ccc(S(=O)(=O)Nc2cccc(C)c2NC(=O)c2cccnc2)cc1
143 to 145 °C	COC(=O)c1cn(C2CC2)c2c(OC)c(N3CCC(CN)(CF)C3)c(F)cc2c1=O (centres undefined)
155 to 156 °C	Cc1oc(-c2ccccc2)nc1CCOc1ccc(C[C@@H](C(=O)O)n2cccc2)cc1
103 to 105 °C	COC(=O)COc1cccc(OCCC(c2ccccc2)(c2ccccc2)c2ccccc2)c1
161 °C	CCOC(=O)c1cn(CC)c2nc(N3CCN(CC)CC3)ncc2c1=O
> 300 °C	O=S1(=O)N=C2CCCN2c2ccc(Oc3cccc(O)c3)cc21
133 to 135 °C	CCOc1ccc(C2=NN(C3CCN(C(=O)CCCC(=O)O)CC3)C(=O)[C@@H]3CC=CC[C@H]23)cc1OCC

melting point	Compound
148 to 150 °C	Clc1nnc(Cl)c2c1CCCC2
151 to 152 °C	COC(=O)c1nc(OC(C)=O)cc2c1[nH]c1ccccc12
80 to 82 °C	O=C(O)CCC(=O)c1cccc(C(F)(F)F)c1
92 to 93 °C	Cc1nn(-c2ccccn2)c2ncc(C(=O)N(C)c3ccccc3)c(OCc3ccccc3)c12
155 to 156 °C	CC(C)c1cccc(CO)c1NC(=O)CC1c2ccccc2Oc2ccccc21
> 275 °C	Cc1ccc(-n2c(-c3sc(Nc4ccc(Cl)cc4)nc3C)nc3ccccc3c2=O)cc1
34 °C	CCOCCC(=O)NN
80 to 81 °C	FC(F)(F)c1cc(CBr)c(C(F)(F)F)cc1CBr
83 to 85 °C	OCCN1CCC(OC(c2ccccc2)c2ccccc2)CC1
128 to 130 °C	O=C(Cc1ccccc1)NCc1cccc2c1C(=O)N(C1CCC(=O)NC1=O)C2=O (centres undefined)
181 °C	c1cc2ncc3c(n2n1)N(C1CCCC1)CC3
158 to 162 °C	Cn1cc(C(=O)NCc2ccc(Cl)cc2)c(=O)c2cc(CN3CCC[C@@H]3[C@@H](O)c3ccccc3)sc21 (relative stereo)
174 to 176 °C	Cn1cnc(CNC(=O)c2ccnc(N3CCN(Cc4ccc(F)cc4)C3=O)c2)c1
224 to 226 °C	CCOc1ccccc1-c1nc2nc(SC)ncc2c(=O)[nH]1
166 to 167 °C	c1ccc2c(c1)nc(-c1ccc3c(c1)OCO3)n2Cc1ccncc1
184 to 185 °C	CCC(=NN=C(c1ccc(Cl)cc1)c1ccc(OS(C)(=O)=O)cc1)NN=C(c1ccc(Cl)cc1)c1ccc(OS(C)(=O)=O)cc1
68 to 70 °C	COc1cccc(C23CCCC(C2)N(C)C3=O)c1 (centres undefined)
196 to 198 °C	CC(C)N1C(CN2CCOCC2)=Cc2cc(S(N)(=O)=O)sc2S1(=O)=O
168 to 170 °C	O=C(OC(c1ccc(Cl)c2nc3n(c12)CCCN3c1ccc(Cl)cc1Cl)C1CC1)C1CC1 (centres undefined)
117 to 120 °C	CC(O)CN(Oc1ccccc1C1CCCCC1)C1CCCC(C2CNC(=O)N2)C1 (centres undefined)
96 to 98 °C	Oc1cccc(C2CCCN2Cc2ccccn2)c1 (centres undefined)
71 to 74 °C	O=C(NCCCN1CCC(c2ccccc2)(c2ccccc2)CC1)N1CCOCC1c1ccc(F)c(F)c1 (centres undefined)
130 to 131 °C	CC(=O)NCc1ccc(CC[N+]2([O-])CCC(C3CCc4ccccc43)CC2)cc1 (centres undefined)
160 °C	CCCCCCN1CCN(Cc2ccc(NC(=S)Nc3ccccc3N)cc2)C(=O)C1=O

melting point	Compound
147 to 148 °C	CC(C)(c1cc(F)ccc1F)S(=O)(=O)c1ccc(Cl)cc1
135 °C	CS(=O)(=O)c1ccc(Oc2ccc([N+](=O)[O-])c(NCCC(N)=O)c2)c(Cl)c1
176 °C	CN(c1ccc(O)cc1)c1nc2cc(Cl)c(Cl)cc2nc1Cl
184 to 188 °C	O=C(CN1CCC(Cc2ccccc2)CC1)Nc1ccc2c(c1)OCC(=O)N2
170 to 172 °C	COc1nc(C)nc(NC(=O)NS(=O)(=O)c2cccnc2OC2CCCC2)n1
117 to 118 °C	OCc1nn(-c2ccc(F)cc2)c2c1CCCC2
106 to 107 °C	CCOC(=NC(=O)c1ccc(Cl)cc1)N1Cc2ccccc2-c2ccccc2C1
104 to 105 °C	CC(C)(c1ccccc1)c1ccc2nc(-c3ccc(C(F)(F)F)cc3)oc(=O)c2c1
95 to 97 °C	CC(C)COC(=O)N[C@H](CC(=O)O)Cc1ccccc1
163 °C	CC(CN1CCCC1)N1c2ccccc2Sc2ccc(C(=O)Nc3ccccc3)cc21 (racemic)
55 to 57 °C	COC(=O)NN(C(=O)Cl)c1ccccc1OCCSC
73 to 75 °C	NCCCc1ccc(SCCC(c2ccccc2)(c2ccccc2)c2ccccc2)cc1
68 to 71 °C	CC(C)(C)NC(=O)[C@@H]1CSCN1
223 to 225 °C	CCn1c(=O)c(-c2c(Cl)cccc2Cl)cc2cnc(Nc3ccccc3)nc21
265 to 267 °C	CCCn1c(=O)c2[nH]c(/C=C/c3cccnc3)nc2n(CCC)c1=O
222 to 223 °C	CCOC(=O)c1cccc(-c2ccc3c(c2)N(C(=O)Cc2cccc(C(F)(F)F)c2)CC3)c1
147 to 150 °C	CC(c1ccccc1)c1cc(C(=O)O)c(O)c(C(C)c2ccccc2)c1 (centres undefined)
231 to 240 °C	Cc1nc2cc(C)c(CN(C)c3ccc(C(=O)NC(CO)c4cccc([N+](=O)[O-])c4)cc3)cc2c(=O)[nH]1 (centres undefined)
251 to 252 °C	NC(=O)c1c(C(=O)O)cnn1-c1ccc(Br)cc1
206 °C	Nc1cccc(C(=O)Nc2ccc(C(=O)N3CCCc4ccccc43)cc2)c1
122 to 124 °C	Cc1c(-c2ccccc2)nn2c1-c1ccccc1CC2
248 to 251 °C	Cc1ccc2cccc(OCc3c(Cl)ccc(N)c3C#N)c2n1
183 to 192 °C	NCC1CCc2c(O)cccc2C1 (centres undefined)
108 to 109 °C	CC(C)(c1ccccc1)n1nnc(-c2ccccc2-c2ccc(CBr)cc2)n1

melting point	Compound
140 to 143 °C	CCOC(=O)c1cc(NC(=O)C(CS)Cc2ccc(Cl)cc2)c[nH]1 (centres undefined)
99 to 101 °C	COc1ccc(S(=O)(=O)NCC2CCN(C[C@H]3COc4ccc(Cl)cc4O3)CC2)cc1OC
149 °C	CC(C)(C)OC(=O)N1C[C@@H]2CC1CN2c1cncc(Br)c1
162 °C	O=C(c1ccc(Cl)cc1)C(Oc1cccc(Cl)n1)n1cncn1 (centres undefined)
290 to 295 °C	N#CC(C#N)=CNc1ccc(C2=NNC(=O)CC2)cc1
70 °C	CCOC(=O)CNc1ccc(OCc2ccccc2)cc1
111 to 112 °C	COC(=O)c1cc(Cl)c(Cl)c(Cl)c1
98 to 102 °C	COC(=O)N(C(C)C)C1C=C(C)CC=C1C(=O)c1ccc(F)cc1 (centres undefined)
85 to 92 °C	CCCCCCCCCCCCCCCCO[C@@H]1CCCO[C@H]1COP(=O)([O-])OCC[N+](C)(C)C (relative stereo)
80.6 °C	C=CC(=O)NC(C)(C)CS(=O)(=O)OC
190 to 192 °C	CC(C)(C)OC(=O)NCCCn1c2c(c3ccc(NCC(=O)O)cc3c1=O)C(=O)c1ccccc1-2
225 to 228 °C	COc1ccc(-c2csc(Nc3ncccn3)n2)cc1OC
103 to 104 °C	COC(=O)C(=O)c1ccc(N(C=O)CCOc2ccc3ccccc3c2)cc1
146 to 147 °C	CNC(=O)N(O)C(C)C#Cc1ccc(C(C)C)cc1 (centres undefined)
143 °C	CCc1nc2c(C)nc(C)cc2n1-c1ccc(CCNC(=O)NS(=O)(=O)c2ccc(C)cc2)cc1
184 to 185 °C	COc1ccccc1N1CCN(C(=O)Nc2nc(C)c(C)nc2OC)CC1
110 °C	CCCc1cc2c(NCCc3ccccc3)ncnc2s1
213 to 215 °C	COC(=O)N1CCC(Nc2ncc3ncnc(Nc4ccc(F)c(Cl)c4)c3n2)CC1
108 to 110 °C	CC(C)(O)CCOc1c(-c2ccc(S(C)(=O)=O)cc2)cnn(-c2ccc(F)c(Cl)c2)c1=O
176 to 178 °C	CN(C)c1cccc2c(S(=O)(=O)Nc3ccc(I)nn3)cccc12
185 to 186 °C	CC(=O)Nc1cc(F)ccc1O

Compound	melting point
CC(=O)C(C#N)c1cccc(Br)c1 (centres undefined)	96 to 100 °C
COc1ccc(-c2ccc3c(c2)C(C)(C)CCC3(C)C)cc1-c1ccc(C(=O)O)cc1	148 to 152 °C
CCN1CNC(=N[N+](=O)[O-])N(Cc2ccc(Cl)nc2)C1	124 to 125 °C
CCN(CC)CCc1c[nH]c2ccc(N(CC)S(=O)(=O)c3ccc4ccccc4c3)cc12	49 to 50 °C
CN1CCN(c2n[nH]c3cc(F)ccc23)CC1	164 to 166 °C
O=C(O)CCNC(=O)[C@H](Cc1ccc(-c2ccccc2)cc1)NCP(=O)(Oc1ccccc1)Oc1ccccc1	102 °C
